The source of these data is US20090093454A1, “Chemical Compounds” (priority 2005, published 2009).

A value given as a limit tells only on which side of the number the result lay.

The first assay concerns HIV-1. The experiment in a line: HIV infectivity assay (Table 2, strain not given). The format is cell-based. The note with it: Human immunodeficiency virus 1, read-out: Activity Level. In a few lines: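 HOS cells expressing hCXCR4/hCCR5/hCD4 with HIV-LTR-luciferase, pre-treated 1 h with compound at 37 °C, then infected with HIV-1 Ba-L or IIIB (~2 million RLU/well) for 96 h. Infection read by Steady-Glo luciferase; cytotoxicity in uninfected cultures by CellTiter-Glo.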
Turning to `c1cnc2c(c1)CC[C@@H]1CCCN(Cc3cn4c(NC[C@@H]5CCCNC5)cccc4n3)[C@H]21` [Example 113, 2-[(4aR,10bS)-3,4,4a,5,6,10b-hexahydro-1,10-phenanthrolin-1(2H)-ylmethyl]-N-[(3R)-3-piperidinylmethyl]imidazo[1,2-a]pyridin-5-amine], the IC50 was < 100 nM.

As for `c1cnc2c(c1)CC[C@@H]1CCCN(Cc3nc4ccccc4n3CCCN3CCCCC3)[C@H]21` (racemic) [Example 43, (cis) 1-({1-[3-(1-piperidinyl)propyl]-1H-benzimidazol-2-yl}methyl)-1,2,3,4,4a,5,6,10b-octahydro-1,10-phenanthroline], the IC50 is < 100 nM. Take `CNCCCN(C)c1cccc2nc(CN3CCC[C@H]4CCc5cccnc5[C@H]43)cn12` [Example 81, N-{2-[(4aR,10bS)-3,4,4a,5,6,10b-hexahydro-1,10-phenanthrolin-1(2H)-ylmethyl]imidazo[1,2-a]pyridin-5-yl}-N,N′-dimethyl-1,3-propanediamine]: the IC50 was < 100 nM. In the case of `c1cnc2c(c1)CC[C@@H]1CCCN(Cc3cn4c(N5CCCNCC5)cccc4n3)[C@H]21` [Example 87, (4aR,10bS)-1-{[5-(hexahydro-1H-1,4-diazepin-1-yl)imidazo[1,2-a]pyridin-2-yl]methyl}-1,2,3,4,4a,5,6,10b-octahydro-1,10-phenanthroline], the IC50 was < 100 nM.

In the case of `NCCCCCn1c(CN2CCC[C@H]3CCc4cccnc4[C@H]32)nc2ccccc21` (racemic) [Example 39, (cis) 5-[2-(3,4,4a,5,6,10b-hexahydro-1,10-phenanthrolin-1(2H)-ylmethyl)-1H-benzimidazol-1-yl]-1-pentanamine], the IC50 is 100 to 500 nM.

The test system of another assay is T-tropic HIV.
Test: not given
The settings on record: patients that are dual tropic or with only the T-tropic form of the virus; cited from earlier work.
Regarding `c1cc(CN2CCCNCCNCCCNCC2)ccc1CN1CCCNCCNCCCNCC1` [AMD-3100], the “T-tropic HIV viral load” value was “significantly reduce”.
